For series [1] the following is noted: in vivo; cited from earlier work.
In series [2] the test system is schizophrenia patients. The conditions noted are these: human, in vivo.
The conditions of series [3]: human, in vivo.
On the set-up of series [4]: species or system human. The settings on record: in vivo.
Series [5] deals with bipolar disorder patients. The conditions noted are these: in vivo; cited from earlier work.
For series [6] the following is noted: human, in vivo. The source holds these as a separate data set.
The conditions of series [7]: human, in vivo. This is another data set of the same source.

The structures appear in SMILES notation. Values joined by “and” are separate entries in the source; they are usually repeats but may differ in a detail not shown here. Equal entries are not always repeated. “Also recorded” adds a separate entry of the source.

Consider `CCO` [Ethanol], for which the “effect on circulating proline” value in series [1] is listed as “increases circulating proline levels”.

As to `CCCC(CCC)C(=O)O` [VPA, 2-propylpentanoic acid], in series [2], the “β (95% CI), bivariate association of VPA treatment with total SANS score” value is recorded as −0.578 (−7.157, 6.001); the “β, SANS total score of Val/Val versus Val/Met and Met/Met patients” value is −12.17. Further, in series [3], the L-serine level came to 117 µM and the fasting glycine level was 361 µM. For the same compound, the “patients showing improvement in negative symptoms after treatment onset” value in series [4] is 2 out of 9 and 5 out of 7 and two and five. The “blood level considered the lower end of the therapeutic range” value in series [5] was 50 µg/mL. In series [6], the “fasting plasma proline, mean±SD” value amounted to 299.29±94.76. Further, the “effect on circulating proline” value in series [1] is given as “upregulates circulating proline; also recorded: strong up-regulator of proline levels”. Further, the “fasting plasma proline versus patients who did not receive VPA” value in series [7] is given as “significantly higher”.
